logP and chromatographic logP data for 69 molecules are collected here from US20110218188A1, “SUBSTITUTED (PYRIDYL)-AZINYLAMINE DERIVATIVES AS FUNGICIDES” (priority 2008, published 2011).

Structures are written as SMILES. Marks after values point to notes of the source that are not given here.

The first series is described as follows: Measurement of logP values by HPLC on reversed phase columns (EEC directive 79/831 Annex V.A8). The class given is physicochemical. Particulars: pH 2.3.
Turning to `CN(C)C(=O)c1cccc(-c2ccnc(Nc3ccnc(Cl)c3)n2)n1` [Example A34], the logP (in general, a log measure of how a compound divides between an organic and an aqueous phase) was 1.96^[b].

Still in this series, the particulars now being: pH 2.7.
Regarding `CC(C)N(C)C(=O)c1cc(-c2ncnc(Nc3cccc(F)c3)n2)ccn1` [Example B8], the logP is on record as 2.67.
Still for that read-out and setting: under `CN(CC(F)F)C(=O)c1cc(-c2ncnc(Nc3ccc(Cl)c(C(F)F)c3)n2)ccn1` [Example B392] stands 3.19.
The molecule `CC1CCC(C)N1C(=O)c1cc(-c2ncnc(Nc3cccc(Cl)c3)n2)ccn1` (stereo not drawn) [Example B141] returned a lipophilicity (logP) of 3.64.
Still for that read-out and setting: under `CCN(CCO)C(=O)c1cc(-c2ncnc(Nc3cccc(Cl)c3)n2)ccn1` [Example B164] stands 2.25; under `CCCC(C)NC(=O)c1cc(-c2ncnc(Nc3cccc(SC)c3)n2)ccn1` (stereo not drawn) [B221], 4.44.
Same read-out and setting: under `O=C(c1cc(-c2ncnc(Nc3cccc(Cl)c3)n2)ccn1)N1CCCC(O)C1` (stereo not drawn) [Example B140] stands 2.2; under `CN(CC1CC1)C(=S)c1cc(-c2ncnc(Nc3ccccc3)n2)ccn1` [Example B337], 3.23; under `CC(=NNCC(F)(F)F)c1cc(-c2ncnc(Nc3cccc(Cl)c3)n2)ccn1` [Example B76], 3.58.
Molecule `CCC(=NOCC1CC1)c1cc(-c2ncnc(Nc3cccc(Cl)c3)n2)ccn1` (mixture of isomers) [Example B54] showed a logP of 5.49.
Still for that read-out and setting: the same measure for `CC(=NNc1ccc(Cl)cc1)c1cc(-c2ncnc(Nc3cccc(Cl)c3)n2)ccn1` [Example B82]: 4.97.
For the molecule `COC(=O)c1cc(-c2ncnc(Nc3ccsc3)n2)ccn1` [Example C24, methyl 4-[4-(3-thienylamino)-1,3,5-triazin-2-yl]pyridine-2-carboxylate], the chromatographic logP (in general, lipophilicity estimated from chromatographic retention) is 2.23.
Consider `COCC(C1CC1)N(C)C(=O)c1cc(-c2ncnc(Nc3ccc(F)cc3)n2)ccn1` (stereo not drawn) [Example B24], for which the logP was found to be 2.8.
Same read-out and setting: under `CCN(CC)C(=O)c1cc(-c2ncnc(Nc3cccc(F)c3)n2)ccn1` [Example B2] stands 2.72.
`O=C(NC1CCCCC1)c1cc(-c2ncnc(Nc3cccc(Cl)c3)n2)ccn1` [B56] yielded a logP of 4.46.
Take `CCCCN(C)C(=O)c1cc(-c2ncnc(Nc3cccc(Cl)c3)n2)ccn1` [Example B123]: the logP was found to be 3.48.
Still for that read-out and setting: under `CC(C)=CCN(C)C(=O)c1cc(-c2ccnc(Nc3ccnc(Cl)c3)n2)ccn1` [Example A30] stands 2.66.
Same read-out and setting: under `C#CC(C)ON=C(CC)c1cc(-c2ncnc(Nc3cccc(Cl)c3)n2)ccn1` (mixture of isomers) [B42] stands 4.87.
On the same count and under the same terms, the same measure for `CC(C)CCN(C)C(=O)c1cc(-c2ncnc(Nc3cccc(Cl)c3)n2)ccn1` [Example B146]: 3.87; for `CCCC#CCON=C(C)c1cc(-c2ncnc(Nc3cccc(Cl)c3)n2)ccn1` (mixture of isomers) [B35]: 5.16.
`CCCN(CC1CC1)C(=O)c1cc(-c2ncnc(Nc3cccc(Cl)c3)n2)ccn1` [Example B159] displayed a logP of 3.94.
On the same count and under the same terms, under `CN(CC1CC1)C(=O)c1cc(-c2ncnc(Nc3ccc(F)c(F)c3)n2)ccn1` [Example B381] stands 2.98.
Still for that read-out and setting: the same measure for `CN(CC(F)F)C(=O)c1cc(-c2ncnc(Nc3ccc(F)c(F)c3)n2)ccn1` [Example B382]: 2.86; for `CCN(C)C(=O)c1cc(-c2ncnc(Nc3ccc(F)c(F)c3)n2)ccn1` [Example B378]: 2.55.
`COCCN(C)C(=O)c1cc(-c2ncnc(Nc3cccc(Cl)c3)n2)ccn1` [Example B172] showed a logP of 2.57.
Still for that read-out and setting: under `CC(C)N(C)C(=O)c1cc(-c2ncnc(Nc3cccc(Cl)c3)n2)ccn1` [Example B158] stands 2.96; under `CCC(=NOCc1ccccc1)c1cc(-c2ncnc(Nc3cccc(Cl)c3)n2)ccn1` (mixture of isomers) [B72], 5.65; under `COc1ccc(Nc2ncnc(-c3ccnc(C(=O)N(C)CC(C)C)c3)n2)cn1` [Example C9], 2.37.
`CC(C)CN(C)C(=O)c1cc(-c2ncnc(Nc3cccc(C(F)F)c3)n2)ccn1` [Example B289] registered a logP of 3.04.
Same read-out and setting: under `CCON(C)C(=O)c1cc(-c2ncnc(Nc3ccsc3)n2)ccn1` [Example C33] stands 2.26; under `CCN(C)C(=S)c1cc(-c2ncnc(Nc3ccsc3)n2)ccn1` [Example C23], 2.68; under `CN(CCC#N)C(=O)c1cc(-c2ncnc(Nc3ccc(F)c(C(F)F)c3)n2)ccn1` [Example B397], 2.37.
On the same count and under the same terms, under `CN(C)C(=O)c1cc(-c2ncnc(Nc3cccc(Cl)c3)n2)ccn1` [Example B150] stands 2.4.
Molecule `CCN(C)C(=S)c1cc(-c2ncnc(Nc3cccc(S(F)(F)(F)(F)F)c3)n2)ccn1` [Example B253, N-ethyl-N-methyl-4-(4-{[3-(pentafluoro-lambda^6-sulfanyl)phenyl]amino}-1,3,5-triazin-2-yl)pyridine-2-carbothioamide] showed a chromatographic logP of 3.57.
With `CC(C)CN(C)C(=O)c1cc(-c2ncnc(Nc3cccc(C#N)c3)n2)ccn1` [Example B295], the lipophilicity (logP) came out at 2.73.
The same measure, in the same setting: under `CCN(C)C(=O)c1cc(-c2ncnc(Nc3cccc(Cl)c3)n2)ccn1` [Example B157] stands 2.69.
For `CN(CC1CC1)C(=O)c1cc(-c2ncnc(Nc3ccc(F)c(Cl)c3)n2)ccn1` [Example B204], the logP is 3.23.
Same read-out and setting: under `COC(=O)c1cc(-c2ncnc(Nc3ccnc(Cl)c3)n2)ccn1` [Example C25] stands 2.02; under `CCCN(C)C(=O)c1cc(-c2ncnc(Nc3ccc(F)c(C(F)F)c3)n2)ccn1` [Example B399], 2.86.
Same read-out and setting: under `CC(=O)Nc1cccc(Nc2ncnc(-c3ccnc(C(=O)N(C)CCC#N)c3)n2)c1` [B304] stands 2.08; under `COCC(C1CC1)N(C)C(=O)c1cc(-c2ncnc(Nc3cccc(Cl)c3)n2)ccn1` (stereo not drawn) [Example B188], 3.09.
With `O=C(O)c1cc(-c2ncnc(Nc3cccc(C(F)F)c3)n2)ccn1` [B407], the logP is on record as 1.98.
Still for that read-out and setting: the same measure for `CCNC(=O)c1cc(-c2ncnc(Nc3ccc(C)c(Cl)c3)n2)ccn1` [B231]: 3.55.
Same read-out and setting: the same measure for `C=CCON=C(CC)c1cc(-c2ncnc(Nc3cccc(Cl)c3)n2)ccn1` (mixture of isomers) [Example B41]: 5.14; for `CC(C)CC(=O)O/N=C(/N)c1cc(-c2ncnc(Nc3cccc(Cl)c3)n2)ccn1` [Example B110]: 4.12; for `C#CCN(CC)C(=O)c1cc(-c2ncnc(Nc3cccc(C(F)F)c3)n2)ccn1` [B420]: 2.86.
For `O=C(c1cc(-c2ncnc(Nc3cccc(Cl)c3)n2)ccn1)N1CCC(O)CC1` [Example B173], the lipophilicity (logP) was 2.04.
On the same count and under the same terms, under `CN(C)C(=O)c1cc(-c2ncnc(Nc3ccc(Cl)c(C(F)F)c3)n2)ccn1` [Example B385] stands 2.59; under `CCCN(C)C(=O)c1cc(-c2ncnc(Nc3ccc(Cl)c(C(F)F)c3)n2)ccn1` [Example B387], 3.23; under `O=C(NCC1CC1)c1cc(-c2ncnc(Nc3ccc(F)c(Cl)c3)n2)ccn1` [B198], 3.83.
On the same count and under the same terms, the same measure for `CC(=NOC(C1CC1)C1CC1)c1cc(-c2ncnc(Nc3cccc(Cl)c3)n2)ccn1` (mixture of isomers) [Example B48]: 5.64.
With `O=C(O)c1cc(-c2ncnc(Nc3ccsc3)n2)ccn1` [Example C28, 4-[4-(3-thienylamino)-1,3,5-triazin-2-yl]pyridine-2-carboxylic acid], the chromatographic logP came to 1.62.
On to `COCC(=O)N(c1ccccc1)c1ncnc(-c2ccnc(C(=O)N(C)CC3CC3)c2)n1` [Example B401], for which the logP was found to be 2.37.
On the same count and under the same terms, the same measure for `CN(C)C(=O)c1cc(-c2ncnc(Nc3cccc(C(F)(F)F)c3)n2)ccn1` [Example B355]: 2.58; for `O=C(NCCC(F)(F)F)c1cc(-c2ncnc(Nc3cccc(Cl)c3)n2)ccn1` [B121]: 3.73; for `CCC(COC)NC(=O)c1cc(-c2ncnc(Nc3ccc(C)c(Cl)c3)n2)ccn1` (stereo not drawn) [B229]: 4.24.
Take `CCN(CC)C(=O)c1cc(-c2nc(Nc3ccsc3)ncc2C)ccn1` [Example A41, N,N-diethyl-4-[5-methyl-2-(3-thienylamino)pyrimidin-4-yl]pyridine-2-carboxamide]: the chromatographic logP amounted to 2.61.
The molecule `CCC(C)N(C)C(=O)c1cc(-c2ccnc(Nc3ccnc(Cl)c3)n2)ccn1` (stereo not drawn) [Example A29] showed a logP of 2.47.
Still for that read-out and setting: the same measure for `Cc1ccc(Nc2ncnc(-c3ccnc(C(=O)NC4CC4)c3)n2)cc1Cl` [Example B226]: 3.62.
In turn, `O=C(NO)c1cc(-c2ncnc(Nc3cccc(Cl)c3)n2)ccn1` [Example B185, 4-{4-[(3-chlorophenyl)amino]-1,3,5-triazin-2-yl}-N-hydroxypyridine-2-carboxamide] displayed a chromatographic logP of 2.13.
`CCCN(CC)C(=O)c1cc(-c2ncnc(Nc3cccc(Cl)c3)n2)ccn1` [Example B125] returned a logP of 3.46.
Still for that read-out and setting: under `CN1CCN(C(=O)c2cc(-c3ncnc(Nc4cccc(Cl)c4)n3)ccn2)CC1` [Example B184] stands 1.5; under `CCC(=NOC1CCCC1)c1cc(-c2ncnc(Nc3cccc(Cl)c3)n2)ccn1` (mixture of isomers) [B47], 6.39; under `CN(C)C(=O)c1cc(-c2ncnc(Nc3cccc(OC(F)(F)F)c3)n2)ccn1` [Example B266], 2.7.
On the same count and under the same terms, under `CCN(CC)C(=O)c1cc(-c2ncnc(Nc3cccc(C#N)c3)n2)ccn1` [Example B292] stands 2.45.

Staying with this series, now noted: pH 7.8.
Consider `COC(=O)c1cc(-c2ncnc(Nc3ccc(OC)c(OC)c3)n2)ccn1` [B422], for which the logP is 2.02^[c].
Consider `COc1ccc(Nc2ncnc(-c3ccnc(C(=O)N4CCCC4)c3)n2)cn1` [Example C1], for which the log partition coefficient (logP) is 1.99^[c].
On the same count and under the same terms, the same measure for `CCCN(CCC)C(=O)c1cc(-c2ncnc(Nc3ccc(OC)nc3)n2)ccn1` [Example C3]: 2.77^[c].
The molecule `COc1ccc(Nc2ncnc(-c3ccnc(C(=O)N4CCCCC4)c3)n2)cn1` [Example C2, (4-{4-[(6-methoxypyridin-3-yl)amino]-1,3,5-triazin-2-yl}pyridin-2-yl)(piperidin-1-yl)methanone] returned a chromatographic logP of 2.14.
